Results on seven molecules are retold here after patent publication US4533498A, “Compounds” (Beecham Group p.l.c., priority 1983, dated 1985).

The subject of one test is vomiting response. In words: Anti-emetic activity in the dog: inhibition of apomorphine-induced vomiting response. It counts as in vivo. To be noted: s.c. 30 minutes prior to apomorphine HCl 0.1 mg/kg s.c.; for ED50: Canis lupus familiaris, sc. The method, then:
Compounds were administered subcutaneously 30 minutes prior to administration of a standard dose of apormorphine HCl (0.1 mg/kg subcutaneously) and the vomiting response compared to that obtained when the same animals were dosed with apomorphine HCl and vehicle only. The ED50 value for inhibition of the vomiting response determined for compounds (17), (29) and (30) was 0.1 mg/kg, and for compound (19) 0.01 mg/kg s.c.

Another test has as its system intragastric pressure. The test can be described thus: Increase in intragastric pressure (conscious restrained rats, gastric fistula). It counts as in vivo, rat. To be noted: 40 minute period after administration, Student's t test vs spontaneous activity. The method, then: Intragastric pressure changes were recorded from previously starved conscious but restrained rats using a saline filled catheter inserted into the lumen of the stomach via a permanent gastric fistula. The catheter was connected to a physiological pressure transducer and pressure changes recorded on a hot wire pen recorder. In each animal a pre-dose period of 40 minutes was allowed to obtain a measure of spontaneous activity. An index of activity was obtained by measuring the average height of pressure waves during 10 minute periods. Values for 4 such periods were obtained during assessment of spontaneous activity and for a 40 minute period after administration of compound. Student's `t` test was applied to the difference in average values obtained for spontaneous and post compound activity.

Another test has as its system dopamine receptor. The test can be described thus: Dopamine receptor blocking activity in the central nervous system: inhibition of apomorphine induced climbing in the mouse. Type of test: in vivo. To be noted: apomorphine 1 mg/kg s.c.; for ED50 (inhibition of apomorphine induced climbing): scored at 10, 20 and 30 minutes; for inhibition of apomorphine induced climbing, result in words: printed beside ED50 10 mg/kg s.c. The procedure:
Compounds were tested for inhibition of apomorphine induced climbing in the mouse. The test is based on that described by Protais, P., Constantin, J. and Schwartz, J. C. (1976), Psychopharmacology, 50, 1-6.
Apomorphine 1 mg/kg s.c. induces mice to climb the wall of a wire cage (inverted food hopper--11×7.5×18 cm high). Mice acclimatised in their home cages in groups of 5 are placed under the hoppers immediately after the injection of apomorphine 1 mg/kg s.c. At 10, 20 and 30 minutes after injection climbing behaviour is scored. The mice are observed for 30 seconds and scored according to the position they spend the majority of time in, score 0--four paws on floor of cage; score 1--fore paws only on walls; score 2--all paws on wall of cage. The scores at all 3 times and for each mouse are summed and mice drug treated compared to mice receiving apomorphine only. A saline only treated group is also included and any score, generally >5% of maximum taken into account.

Take `COc1cc(N)c(S(C)(=O)=O)cc1C(=O)NC1CC2CCC1CN2Cc1ccccc1` (stereo not shown) [Compound 29, 4-amino-2-methoxy-5-methylsulphonyl-N-[5-(2-benzyl-2-azabicyclo(2.2.2)octyl)]benzamide]: the ED50 (commonly the midpoint of the dose-response relation) in the test with vomiting response amounted to 0.1 mg/kg.

Consider `COc1cc(N)c(Cl)cc1C(=O)NC1CC2CCC1CN2Cc1ccccc1` (racemic) [Compound 20, (±) 4-Amino-5-chloro-2-methoxy-N-(5-[2-benzyl-2-azabicyclo[2,2,2]octyl])benzamide], for which the “index of activity (average height of pressure waves) post administration” value (shortened to “index of activity”) with intragastric pressure (0.5 mg/kg s.c.) was “significantly increased the index of activity”. For the same molecule, in the test on dopamine receptor, the “ED50 (inhibition of apomorphine induced climbing)” value is recorded as 3.6 mg/kg s.c.

Take `COc1cc(N)c(Cl)cc1C(=O)NC1CC2CCC1CN2Cc1ccccc1` (racemic) [Compound 19, (±)-4-Amino-5-chloro-2-methoxy-N-(5-[2-benzyl-2-azabicyclo[2,2,2]octyl]benzamide]: the “index of activity” value in the test on intragastric pressure (1.0 mg/kg s.c.) is listed as “similarly active”. In the test on dopamine receptor, the “ED50 (inhibition of apomorphine induced climbing)” value is 0.36 mg/kg s.c. The molecule further returned an ED50 in the test on vomiting response of 0.01 mg/kg.

With `COc1cc(N)c(Cl)cc1C(=O)NC1CC2CCC1CN2C` (racemic) [Compound 18, (±) 4-Amino-5-chloro-2-methoxy-N-(5-[2-methyl-2-azabicyclo[2,2,2]octyl]benzamide], in the test with intragastric pressure (0.5 mg/kg s.c.), the “index of activity” value was “significantly increased the index of activity”. In the test on dopamine receptor, the “inhibition of apomorphine induced climbing, result in words” value was “inactive” and the “ED50 (inhibition of apomorphine induced climbing)” value was 10 mg/kg s.c.

As to `COc1cc(N)c(Cl)cc1C(=O)NC1CC2CCC1CN2C` (racemic) [Compound 17, (±)-4-Amino-5-chloro-2-methoxy-N-(5-[2-methyl-2-azabicyclo[2,2,2]octyl]benzamide], the “index of activity” value in the test with intragastric pressure (0.5 mg/kg s.c.) was “significantly increased the index of activity”. For the same molecule, in the test on dopamine receptor, the “ED50 (inhibition of apomorphine induced climbing)” value is 7.7 mg/kg s.c. This molecule returned an ED50 in the test on vomiting response of 0.1 mg/kg.

`COc1cc(N)c(Cl)cc1C(=O)NC1CC2CC1CN2C` (racemic) [Compound 26, (±) 4-amino-5-chloro-2-methoxy-N-[5-(2-methyl-2-azabicyclo(2.2.1)heptyl)]benzamide]: in the test on intragastric pressure (0.5 mg/kg s.c.), the “index of activity” value is reported as “significantly increased the index of activity”. Also, in the test with dopamine receptor, the “inhibition of apomorphine induced climbing, result in words” value was “inactive” and the “ED50 (inhibition of apomorphine induced climbing)” value is 10 mg/kg s.c.

Regarding `COc1cc(N)c(S(C)(=O)=O)cc1C(=O)NC1CC2CCC1CN2Cc1ccccc1` (stereo not shown) [Compound 30, 4-amino-2-methoxy-5-methylsulphonyl-N-[5-(2-benzyl-2-azabicyclo(2.2.2)octyl)]benzamide], in the test on vomiting response, the “ED50 value for inhibition of the vomiting response” value is listed as 0.1 mg/kg.
